Structures can show the parent of a compound that is named as a salt.
Biological target: T1, recombinant IRAK-4 kinase (Homo sapiens, UniProt Q9NWZ3)
T1 construct: purchased Millipore, USA
T1 sequence (Q9NWZ3 1-460): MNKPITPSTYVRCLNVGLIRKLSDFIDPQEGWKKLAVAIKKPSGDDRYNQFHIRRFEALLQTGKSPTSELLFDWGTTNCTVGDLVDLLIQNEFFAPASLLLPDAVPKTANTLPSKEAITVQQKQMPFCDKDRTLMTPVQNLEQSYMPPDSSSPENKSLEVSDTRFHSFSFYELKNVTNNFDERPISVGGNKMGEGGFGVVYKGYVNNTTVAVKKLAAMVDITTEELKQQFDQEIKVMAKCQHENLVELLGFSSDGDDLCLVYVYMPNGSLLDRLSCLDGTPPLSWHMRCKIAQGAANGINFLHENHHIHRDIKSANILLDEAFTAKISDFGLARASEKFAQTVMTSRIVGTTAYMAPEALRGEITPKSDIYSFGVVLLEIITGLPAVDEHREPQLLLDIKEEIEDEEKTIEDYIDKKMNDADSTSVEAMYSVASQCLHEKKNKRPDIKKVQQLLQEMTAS
Experiment: IRAK-4 Biochemical Assay (TR-FRET)
Settings: 30 min pre-incubation, 100 nM Biotin Histone H3, 20 μM ATP, read-out: IC50 values for IRAK4 activity

SMILES | IC50
Cc1cc(-c2nc(C(=O)Nc3cc4cnn(C)c4cc3N3CCC(CO)CC3)co2)ccn1 [Example 89, N-(6-(4-(hydroxymethyl)piperidin-1-yl)-1-methyl-1H-indazol-5-yl)-2-(2-methylpyridin-4-yl)oxazole-4-carboxamide] | < 50 nM
Cn1cc2cc(NC(=O)c3coc(-c4ccnc(N)c4)n3)c(N3CCC(F)CC3)cc2n1 [Example 90, 2-(2-aminopyridin-4-yl)-N-(6-(4-fluoropiperidin-1-yl)-2-methyl-2H-indazol-5-yl)oxazole-4-carboxamide hydrochloride] | < 50 nM
Cc1cc(-c2nc(C(=O)Nc3cc4cn(C)nc4cc3N3CCC(F)CC3)co2)ccn1 [Example 91, N-(6-(4-fluoropiperidin-1-yl)-2-methyl-2H-indazol-5-yl)-2-(2-methylpyridin-4-yl)oxazole-4-carboxamide hydrochloride] | < 50 nM
C[C@H](O)Cn1cc(-c2cccc(C(=O)Nc3cc4cn(C)nc4cc3N3CCC(CO)CC3)n2)cn1 [Example 92, (S)—N-(6-(4-(hydroxymethyl)piperidin-1-yl)-2-methyl-2H-indazol-5-yl)-6-(1-(2-hydroxypropyl)-1H-pyrazol-4-yl)picolinamide] | < 50 nM
Cn1cc2cc(NC(=O)c3coc(-c4ccnc(N)c4)n3)c(N3CCC(O)CC3)cc2n1 [Example 93, 2-(2-aminopyridin-4-yl)-N-(6-(4-hydroxypiperidin-1-yl)-2-methyl-2H-indazol-5-yl)oxazole-4-carboxamide hydrochloride] | < 50 nM
COCCn1ncc2cc(NC(=O)c3coc(-c4ccnc(C)c4)n3)c(N3CCC(CO)CC3)cc21 [Example 94, N-(6-(4-(hydroxymethyl)piperidin-1-yl)-1-(2-methoxyethyl)-1H-indazol-5-yl)-2-(2-methylpyridin-4-yl)oxazole-4-carboxamide] | < 50 nM
C[C@H](O)Cn1cc(-c2cccc(C(=O)Nc3cc4cnn(C)c4cc3N3CCC(CO)CC3)n2)cn1 [Example 95, (S)—N-(6-(4-(hydroxymethyl)piperidin-1-yl)-1-methyl-1H-indazol-5-yl)-6-(1-(2-hydroxypropyl)-1H-pyrazol-4-yl)picolinamide] | > 100 nM
COCCn1cc2cc(NC(=O)c3coc(-c4ccnc(C)c4)n3)c(N3CCC(CO)CC3)cc2n1 [Example 96, N-(6-(4-(hydroxymethyl)piperidin-1-yl)-2-(2-methoxyethyl)-2H-indazol-5-yl)-2-(2-methylpyridin-4-yl)oxazole-4-carboxamide] | < 50 nM
COc1cc(-c2nc(C(=O)Nc3cc4cn(C)nc4cc3N3CCC(CO)CC3)co2)ccn1 [Example 97, N-(6-(4-(hydroxymethyl)piperidin-1-yl)-2-methyl-2H-indazol-5-yl)-2-(2-methoxypyridin-4-yl)oxazole-4-carboxamide] | < 50 nM
CC(=O)Nc1cc(-c2nc(C(=O)Nc3cc4cn(C)nc4cc3N3CCC(CO)CC3)co2)ccn1 [Example 98, 2-(2-acetamidopyridin-4-yl)-N-(6-(4-(hydroxymethyl)piperidin-1-yl)-2-methyl-2H-indazol-5-yl)oxazole-4-carboxamide] | < 50 nM
Cn1ncc2cc(NC(=O)c3coc(-c4ccnc(N)c4)n3)c(N3CCC(CO)CC3)cc21 [Example 99, 2-(2-aminopyridin-4-yl)-N-(6-(4-(hydroxymethyl)piperidin-1-yl)-1-methyl-1H-indazol-5-yl)oxazole-4-carboxamide hydrochloride] | < 50 nM
Cn1cc2cc(NC(=O)c3coc(-c4ccnc(N)c4)n3)c(N3CCC(CO)CC3)cc2n1 [Example 100, 2-(2-aminopyridin-4-yl)-N-(6-(4-(hydroxymethyl)piperidin-1-yl)-2-methyl-2H-indazol-5-yl)oxazole-4-carboxamide hydrochloride] | < 50 nM
COc1cc(-c2nc(C(=O)Nc3cc4cnn(C)c4cc3N3CCC(O)CC3)co2)ccn1 [Example 101, N-(6-(4-hydroxypiperidin-1-yl)-1-methyl-1H-indazol-5-yl)-2-(2-methoxypyridin-4-yl)oxazole-4-carboxamide] | < 50 nM
Cn1cc2cc(NC(=O)c3coc(-c4ccnc(N)c4)n3)c(N3CCCC(O)C3)cc2n1 (stereo not drawn) [Example 102, 2-(2-aminopyridin-4-yl)-N-(6-(3-hydroxypiperidin-1-yl)-2-methyl-2H-indazol-5-yl)oxazole-4-carboxamide hydrochloride] | < 50 nM
COc1cc(-c2nc(C(=O)Nc3cc4cn(C)nc4cc3N3CCCCC3)co2)ccn1 [Example 103, 2-(2-methoxypyridin-4-yl)-N-(2-methyl-6-(piperidin-1-yl)-2H-indazol-5-yl)oxazole-4-carboxamide] | < 50 nM
Cn1cc2cc(NC(=O)c3coc(-c4ccnc(N)c4)n3)c(N3CCCC(F)C3)cc2n1 (stereo not drawn) [Example 104, 2-(2-aminopyridin-4-yl)-N-(6-(3-fluoropiperidin-1-yl)-2-methyl-2H-indazol-5-yl)oxazole-4-carboxamide hydrochloride] | < 50 nM
Cn1cc2cc(NC(=O)c3coc(-c4ccnc(N)c4)n3)c(N3CC[C@@H](O)C3)cc2n1 [Example 105, (R)-2-(2-aminopyridin-4-yl)-N-(6-(3-hydroxypyrrolidin-1-yl)-2-methyl-2H-indazol-5-yl)oxazole-4-carboxamide hydrochloride] | < 50 nM
COCC(=O)OC1CCN(c2cc3c(cc2NC(=O)c2coc(-c4ccnc(C)c4)n2)c(C)nn3C)CC1 [Example 106, 1-(1,3-dimethyl-5-(2-(2-methylpyridin-4-yl)oxazole-4-carboxamido)-1H-indazol-6-yl)piperidin-4-yl 2-methoxyacetate] | < 50 nM
COc1cc(-c2nc(C(=O)Nc3cc4cn(C)nc4cc3N3CCC(O)CC3)co2)ccn1 [Example 107, N-(6-(4-hydroxypiperidin-1-yl)-2-methyl-2H-indazol-5-yl)-2-(2-methoxypyridin-4-yl)oxazole-4-carboxamide hydrochloride] | < 50 nM

Next, values leading:

IC50 | SMILES
< 50 nM | COCCn1ncc2cc(NC(=O)c3coc(-c4ccnc(C)c4)n3)c(N3CCC(N)CC3)cc21 [Example 108, N-(6-(4-aminopiperidin-1-yl)-1-(2-methoxyethyl)-1H-indazol-5-yl)-2-(2-methylpyridin-4-yl)oxazole-4-carboxamide hydrochloride]
< 50 nM | Cc1cc(-c2nc(C(=O)Nc3cc4cn(C)nc4cc3N3CCC(N)CC3)co2)ccn1 [Example 109, N-(6-(4-aminopiperidin-1-yl)-2-methyl-2H-indazol-5-yl)-2-(2-methylpyridin-4-yl)oxazole-4-carboxamide hydrochloride]
< 50 nM | COCCn1nc(C)c2cc(NC(=O)c3coc(-c4ccnc(C)c4)n3)c(N3CCC(CO)CC3)cc21 [Example 110, N-(6-(4-(hydroxymethyl)piperidin-1-yl)-1-(2-methoxyethyl)-3-methyl-1H-indazol-5-yl)-2-(2-methylpyridin-4-yl)oxazole-4-carboxamide]
< 50 nM | Cc1cc(-c2nc(C(=O)Nc3cc4c(C)nn(C)c4cc3N3CCC(CO)CC3)co2)ccn1 [Example 111, N-(6-(4-(hydroxymethyl)piperidin-1-yl)-1,3-dimethyl-1H-indazol-5-yl)-2-(2-methylpyridin-4-yl)oxazole-4-carboxamide]
< 50 nM | Cc1nn(C)c2cc(N3CCC(CO)CC3)c(NC(=O)c3coc(-c4ccnc(N)c4)n3)cc12 [Example 112, 2-(2-aminopyridin-4-yl)-N-(6-(4-(hydroxymethyl)piperidin-1-yl)-1,3-dimethyl-1H-indazol-5-yl)oxazole-4-carboxamide]
< 50 nM | Cn1ncc2cc(NC(=O)c3coc(-c4ccnc(O)c4)n3)c(N3CCC(O)CC3)cc21 [Example 113, N-(6-(4-hydroxypiperidin-1-yl)-1-methyl-1H-indazol-5-yl)-2-(2-hydroxypyridin-4-yl)oxazole-4-carboxamide]
< 50 nM | Cc1cc(-c2nc(C(=O)Nc3cc4cnn(C)c4cc3N3CCC(O)CC3)co2)cc(C)n1 [Example 114, 2-(2,6-dimethylpyridin-4-yl)-N-(6-(4-hydroxypiperidin-1-yl)-1-methyl-1H-indazol-5-yl)oxazole-4-carboxamide]
< 50 nM | Cc1cc(-c2nc(C(=O)Nc3cc4cnn(C)c4cc3N3CC[C@H](O)C3)co2)ccn1 [Example 115, (S)—N-(6-(3-hydroxypyrrolidin-1-yl)-1-methyl-1H-indazol-5-yl)-2-(2-methylpyridin-4-yl)oxazole-4-carboxamide]
< 50 nM | COCCn1nc(C)c2cc(NC(=O)c3coc(-c4ccnc(C)c4)n3)c(N3CCC(O)CC3)cc21 [Example 116, N-(6-(4-hydroxypiperidin-1-yl)-1-(2-methoxyethyl)-3-methyl-1H-indazol-5-yl)-2-(2-methylpyridin-4-yl)oxazole-4-carboxamide]
< 50 nM | Cc1cc(-c2nc(C(=O)Nc3cc4cnn(CCO)c4cc3N3CCC(O)CC3)co2)ccn1 [Example 117, N-(1-(2-hydroxyethyl)-6-(4-hydroxypiperidin-1-yl)-1H-indazol-5-yl)-2-(2-methylpyridin-4-yl)oxazole-4-carboxamide]
< 50 nM | COCCn1cc2cc(NC(=O)c3coc(-c4ccnc(C)c4)n3)c(N3CCC(N)CC3)cc2n1 [Example 118, N-(6-(4-aminopiperidin-1-yl)-2-(2-methoxyethyl)-2H-indazol-5-yl)-2-(2-methylpyridin-4-yl)oxazole-4-carboxamide hydrochloride]

From patent publication US10160753B2, “Indazole compounds as IRAK4 inhibitors” (Aurigene Discovery Technologies Limited, priority 2014, dated 2018)
